The values below come from US6126940A, “Hair-growing agent comprised of proanthocyanidins” (Kyowa Hakko Kogyo Co., Ltd., priority 1994, dated 2000).

This series deals with dd mice. As to the kind of experiment: Acute Toxicity. Type of series: in vivo, mouse (male dd). The note with it: subcutaneous, 2000 mg/kg, five male dd mice.

The structures appear in SMILES notation.

As for `Oc1cc(O)c2c(c1)O[C@H](c1ccc(O)c(O)c1)[C@H](O)[C@H]2c1c(O)cc(O)c2c1O[C@H](c1ccc(O)c(O)c1)[C@H](O)C2` [Compound 2, epicatechin-(4β→8)-epicatechin], the mortality entry was “none of the mice died”.
